Measurements reported in article PMC7714071, “Interaction of amyloid beta with humanin and acetylcholinesterase is modulated by ATP” (FEBS Open Bio, 2020).

Tests used:
[1] = tested on: Aβ in A549 cell-conditioned media; test: ELISA, oligomer versus total Aβ in A549 cell-conditioned media; type: cell-based, human; conditions: Fig. 8A
Protocol: (§1) Aβ ELISAs were carried out according to previous protocols for determining the oligomeric and monomeric concentrations of Aβ and as we recently reported. Briefly, total Aβ (monomers + oligomers) was measured by two‐site binding ELISAs using the capture 6E10 monoclonal antibody and 4G8‐conjugated biotin as the detection antibody, which recognizes a distinct epitope, then quantitated using streptavidin‐HRP.
(§2) Using the same samples, oligomerized Aβ was measured by a single‐site ELISA in which antibodies targeting the same primary sequence epitope were used for both capture (4G8) and detection (4G8‐biotin). Only oligomers are detected with this approach since the 4G8‐biotin antibody cannot bind to the captured monomer because the epitope is blocked by the 4G8 capture antibody. Therefore, only oligomeric or multimeric Aβ containing additional exposed 4G8 epitopes, not engaged by the capture antibody, are reported by the streptavidin–HRP. The amount of the monomer was then estimated as the difference between the concentration of total Aβ and the concentration of the oligomer.
(§3) Conditioned media were immunodepleted (ID) according to the methods previously described and our recently published report. Briefly, specific antibodies were bound to ELISA wells overnight (1 : 1000 dilution). The wells were then blocked and washed, then 300 μL of the conditioned medium (0.5 μg·μL^−1) treated as indicated, 72 h postserum starvation, was incubated with the antibodies bound to ELISA wells for 24 h. The ID media were then carefully removed and analyzed for the presence of the target protein or peptide by ELISA. The same amount of protein (3 µL of 600 µg·mL^−1 total protein) of each sample was analyzed in the experiments. Significant depletion (95–100%) was observed upon using each of the antibodies employed in this study.
(§4) Both epitopes recognized by the 6E10 and 4G8 antibodies have been previously shown to be exposed in Aβ aggregates. […] To determine the effect of ID of AChE or HN on this ratio in the absence or presence of added ATP, 0.2 × 10^5 cells per well were seeded in 96‐well plates in 10% FBS‐supplemented media. The next day, the cells were incubated in serum‐free medium for 72 h, then ID of AChE or HN as described in Materials and methods. The antibodies 6E10 or 4G8 were bound (1 : 1000 dilution) to ELISA wells (Fig. 8). The wells were blocked, and then incubated with 300 μL of the ID medium (0.5 μg·μL^−1). Biotin‐4G8 was then added and the signal processed as described in Materials and methods section. Fold change relative to controls using anti‐6E10 or anti‐4G8 antibodies incubated with 300 μL of the medium not incubated with cells was calculated.
(§5) Cells (0.2 × 10^5) were grown in 10% FBS‐supplemented media for 24 h. The cells were then incubated in serum‐free medium for 72 h without or with ATP and the media collected and ID from either HN or AChE as described in Materials and methods section. The antibodies 6E10 or 4G8 were bound (1 : 1000 dilution) to ELISA wells. The wells were blocked, and then incubated with 300 μL of the control and ID medium (0.5 μg·μL^−1). Biotin‐4G8 was then added and the signal processed as described in Materials and methods section. Fold change relative to controls using anti‐6E10 and anti‐4G8 antibodies and 300 μL of the medium not incubated with cells was calculated. Data were processed using the […] 8.4.3 software. The graphs summarize the results expressed as means ± SD of three separate experiments, each performed in triplicate. […]

[2] = tested on: Aβ in H1299 cell-conditioned media; test: ELISA, oligomer versus total Aβ in H1299 cell-conditioned media; type: cell-based, human; conditions: Fig. 8B
Protocol: as §1, §2, §3, §4, §5

[3] = non-depleted, HN-ID or AChE-ID media

Molecule: Nc1ncnc2c1ncn2[C@@H]1O[C@H](COP(=O)(O)OP(=O)(O)OP(=O)(O)O)[C@@H](O)[C@H]1O [ATP, Adenosine triphosphate]
- effect of ATP on relative amount of oligomer versus total Aβ ([1]; HN-immunodepleted A549 media, three experiments in triplicate): does not affect
- effect of ATP on relative amount of oligomer versus total Aβ [1, 3]: lack of effect
- effect of ATP on relative amount of oligomer versus total Aβ ([2]; HN-immunodepleted H1299 media, three experiments in triplicate): does not affect
- effect of ATP on relative amount of oligomer versus total Aβ [2, 3]: lack of effect

Molecule: Humanin [HN]
- oligomer, % of total Aβ remaining after HN ID ([1]; HN-immunodepleted A549 media (non-depleted ~ 63%)): ~ 86%
- total Aβ remaining after HN ID ([1]; HN-immunodepleted A549 media): ~ 63%
- oligomer, % of total Aβ remaining after HN ID ([2]; HN-immunodepleted H1299 media (non-depleted ~ 48%)): ~ 69%
- total Aβ remaining after HN ID ([2]; HN-immunodepleted H1299 media): ~ 58%
